# Values of other authors as cited in paper PMC6005628, “Molecular genetic characteristics of influenza A virus clinically isolated during 2011‐2016 influenza seasons in Korea” (Influenza and Other Respiratory Viruses, 2018).
# Test system: NA protein with single I222V/M substitution
smiles,measurement,value
CCOC(=O)C1=C[C@@H](OC(CC)CC)[C@H](NC(C)=O)[C@@H](N)C1 [oseltamivir],resistance associated with NA substitution,marginal levels of resistance
